Measurements as given in patent US9556179B2 (BRISTOL-MYERS SQUIBB COMPANY, priority 2012, dated 2017).
pIC50: −log10 of the molar value.

Columns and labels:
CK1ε = CK1ε (Homo sapiens (Human), UniProt P49674); assay: CK1ε kinase assay (Caliper LABCHIP electrophoretic separation of fluoresceinated peptide substrate and product); type: biochemical; settings: 200 pM enzyme, 50 μM ATP, 22 hours at room temperature
Method in brief: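 Eleven-concentration compound series in kinase reactions run for 22 hours at room temperature. Terminated with EDTA, with product conversion read by electrophoretic separation. Non-linear regression gave IC50.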

CK1δ = CK1δ (Homo sapiens (Human), UniProt P48730); assay: CK1δ kinase assay (Caliper LABCHIP electrophoretic separation of fluoresceinated peptide substrate and product); type: biochemical; settings: 200 pM enzyme, 50 μM ATP, 22 hours at room temperature
Sequence of CK1δ (P48730 whole entry): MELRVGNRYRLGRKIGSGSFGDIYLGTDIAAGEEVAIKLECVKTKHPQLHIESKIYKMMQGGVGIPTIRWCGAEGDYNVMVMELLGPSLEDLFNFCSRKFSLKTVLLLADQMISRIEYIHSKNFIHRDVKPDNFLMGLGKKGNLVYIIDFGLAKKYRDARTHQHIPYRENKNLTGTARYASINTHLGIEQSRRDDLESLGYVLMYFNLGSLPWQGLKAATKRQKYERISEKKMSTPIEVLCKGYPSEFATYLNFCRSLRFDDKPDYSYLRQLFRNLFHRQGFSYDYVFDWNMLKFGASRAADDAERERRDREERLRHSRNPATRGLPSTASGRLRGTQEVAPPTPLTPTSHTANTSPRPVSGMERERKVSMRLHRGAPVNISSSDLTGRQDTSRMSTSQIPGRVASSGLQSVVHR
Procedure: CK1ε and CK1δ Kinase Assays
The kinase assay was performed in V-bottom 384-well plates. […] The reaction was incubated at room temperature for 22 hours and terminated by adding 45 μl of 35 mM EDTA to each sample. The reaction mixture was analyzed on the Caliper LABCHIP®3000 (Caliper, Hopkinton, Mass.) by electrophoretic separation of the unphosphorylated substrate and phosphorylated product. […] Compounds were dissolved at 10 mM in dimethylsulfoxide (DMSO) and evaluated at eleven concentrations. IC50 values were derived by non-linear regression analysis.

Sequence of CK1ε (P49674 whole entry): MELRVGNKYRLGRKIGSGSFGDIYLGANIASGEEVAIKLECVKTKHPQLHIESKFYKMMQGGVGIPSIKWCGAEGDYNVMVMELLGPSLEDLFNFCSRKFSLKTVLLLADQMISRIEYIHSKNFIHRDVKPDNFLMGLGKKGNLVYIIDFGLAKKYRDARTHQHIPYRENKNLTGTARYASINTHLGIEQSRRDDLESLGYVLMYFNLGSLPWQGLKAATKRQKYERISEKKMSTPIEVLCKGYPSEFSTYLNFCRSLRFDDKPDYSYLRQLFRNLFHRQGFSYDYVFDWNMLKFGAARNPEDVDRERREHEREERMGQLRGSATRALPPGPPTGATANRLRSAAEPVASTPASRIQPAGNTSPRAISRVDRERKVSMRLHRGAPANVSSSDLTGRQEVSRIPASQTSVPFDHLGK

| Structure (SMILES) | pIC50 (CK1ε) | pIC50 (CK1δ) |
| --- | --- | --- |
| O=C(Nc1cn2nc(-c3c(-c4ccc(F)cc4)ncn3C3CCN(C(=O)c4c[nH]cn4)CC3)ccc2n1)c1ccnc(F)c1 [Compound 72, N-(6-(1-(1-(1H-imidazole-4-carbonyl)piperidin-4-yl)-4-(4-fluorophenyl)-1H-imidazol-5-yl)imidazo(1,2-b]pyridazin-2-yl)-2-fluoroisonicotinamide] | 9.25 | 9.74 |
| O=C(Nc1cn2nc(-c3c(-c4ccc(F)cc4)nc(C4CC4)n3C3CCNCC3)ccc2n1)c1ccnc(F)c1 [Compound 119, N-(6-(2-cyclopropyl-4-(4-fluorophenyl)-1-(piperidin-4-yl)-1H-imidazol-5-yl)imidazo[1,2-b]pyridazin-2-yl)-2-fluoroisonicotinamide] | 8.08 | 8.92 |
| O=C(Nc1cn2nc(-c3c(-c4ccc(F)cc4)ncn3CCN3CCCC3=O)ccc2n1)c1ccnc(F)c1 [Compound 272, 2-fluoro-N-(6-(4-(4-fluorophenyl)-1-(2-(2-oxo-1-pyrrolidinyl)ethyl)-1H-imidazol-5-yl)imidazo[1,2-b]pyridazin-2-yl)isonicotinamide] | 7.78 | 8.78 |
| Cc1nc(-c2ccc(F)cc2)c(-c2ccc3nc(NC(=O)c4ccccc4F)cn3n2)n1C [Compound 399, 2-fluoro-N-(6-(4-(4-fluoro-phenyl)-1,2-dimethyl-1H-imidazol-5-yl)imidazo[1,2-b]pyridazin-2-yl)benzamide] | 8.28 | 8.67 |
| O=C(Nc1cn2nc(-c3c(-c4ccc(F)cc4)ncn3C3CCN(C(=O)CC(F)(F)F)CC3)ccc2n1)c1cncs1 [Compound 117, N-(6-(4-(4-fluorophenyl)-1-(1-(3,3,3-trifluoropropanoyl)piperidin-4-yl)-1H-imidazol-5-yl)imidazo[1,2-b]pyridazin-2-yl)thiazole-5-carboxamide] | 9.37 | 9.76 |
| CC(C)(NC(=O)N1CCn2c(nc(-c3ccc(F)cc3)c2-c2ccc3nc(NC(=O)c4ccnc(F)c4)cn3n2)C1)C(F)(F)F [Compound 484, 3-(2-(2-Fluoroisonicotinamido)imidazo[1,2-b]pyridazin-6-yl)-2-(4-fluorophenyl)-N-(1,1,1-trifluoro-2-methylpropan-2-yl)-5,6-dihydroimidazo[1,2-a]pyrazine-7(8H)-carboxamide] | 8.17 | 9.22 |
| O=C(Nc1cn2nc(-c3c(-c4ccc(F)cc4)ncn3CCN3CCOCC3)ccc2n1)c1cccc(-c2cccnc2)c1 [Compound 167, N-(6-(4-(4-fluorophenyl)-1-(2-morpholinoethyl)-1H-imidazol-5-yl)imidazo[1,2-b]pyridazin-2-yl)-3-(pyridin-3-yl)benzamide] | 9.16 | 9.98 |
| CN1CCC(n2cnc(-c3ccc(F)cc3)c2-c2ccc3nc(NC(=O)c4ccnc(F)c4)cn3n2)CC1 [Compound 11] | 9.18 | 9.07 |
| O=C(Nc1cn2nc(-c3c(-c4ccc(F)cc4)ncn3C3CCN(C(=O)CN4CCOCC4)CC3)ccc2n1)c1ccnc(F)c1 [Compound 61, 2-fluoro-N-(6-(4-(4-fluorophenyl)-1-(1-(2-morpholinoacetyl)piperidin-4-yl)-1H-imidazol-5-yl)imidazo[1,2-b]pyridazin-2-yl)isonicotinamide] | 8.90 | 9.73 |
| O=C(Nc1cn2nc(-c3c(-c4ccc(F)cc4)ncn3C3CCOCC3)ccc2n1)c1cc(F)nc(F)c1 [Compound 433, 2,6-Difluoro-N-(6-(4-(4-fluorophenyl)-1-(tetrahydro-2H-pyran-4-yl)-1H-imidazol-5-yl)imidazo[1,2-b]pyridazin-2-yl)isonicotinamide] | 8.92 | 9.70 |
| Cc1nc(C(=O)Nc2cn3nc(-c4c(-c5ccc(F)cc5)nc(C)n4C)ccc3n2)co1 [Compound 371, N-(6-(4-(4-fluorophenyl)-1,2-dimethyl-1H-imidazol-5-yl)imidazo[1,2-b]pyridazin-2-yl)-2-methyl-1,3-oxazole-4-carboxamide] | 7.70 | 8.60 |
| N#CCC(=O)N1CCC(n2cnc(-c3ccc(F)cc3)c2-c2ccc3nc(NC(=O)c4ccnc(F)c4)cn3n2)CC1 [Compound 46, N-(6-(1-(1-(2-cyanoacetyl)piperidin-4-yl)-4-(4-fluorophenyl)-1H-imidazol-5-yl)imidazo[1,2-b]pyridazin-2-yl)-2-fluoroisonicotinamide] | 9.13 | 9.70 |
| Cc1nc(-c2ccc(F)cc2)c(-c2ccc3nc(NC(=O)Nc4cccc(C#N)c4)cn3n2)n1C [Compound 410, 1-(3-cyanophenyl)-3-(6-(4-(4-fluorophenyl)-1,2-dimethyl-1H-imidazol-5-yl)imidazo[1,2-b]pyridazin-2-yl)urea] | 6.82 | 8.12 |
| O=C(Nc1cn2nc(-c3c(-c4ccc(F)cc4)nc4ccccn34)ccc2n1)c1ccnc(O)c1 [Compound 195, N-(6-(2-(4-fluorophenyl)imidazo[1,2-a]pyridin-3-yl)imidazo[1,2-b]pyridazin-2-yl)-2-hydroxyisonicotinamide] | 8.31 | 9.22 |
| N#CC1(C(=O)N2CCC(n3cnc(-c4ccc(F)cc4)c3-c3ccc4nc(NC(=O)c5ccnc(F)c5)cn4n3)CC2)CC1 [Compound 71, N-(6-(1-(1-(1-cyanocyclopropanecarbonyl)piperidin-4-yl)-4-(4-fluorophenyl)-1H-imidazol-5-yl)imidazo[1,2-b]pyridazin-2-yl)-2-fluoroisonicotinamide] | 9.17 | 9.76 |
| Cc1nc(-c2ccc(F)cc2)c(-c2ccc3nc(NC(=O)c4ccnc(F)c4)cn3n2)n1C1CCN(CCC(F)(F)F)CC1 [Compound 145, 2-fluoro-N-(6-(4-(4-fluorophenyl)-2-methyl-1-(1-(3,3,3-trifluoropropyl)piperidin-4-yl)-1H-imidazol-5-yl)imidazo[1,2-b]pyridazin-2-yl)isonicotinamide] | 8.02 | 9.02 |
| Cc1nc(-c2ccncc2)sc1C(=O)Nc1cn2nc(-c3c(-c4ccc(F)cc4)nc4ccccn34)ccc2n1 [Compound 219, N-(6-(2-(4-fluorophenyl)imidazo[1,2-a]pyridin-3-yl)imidazo[1,2-b]pyridazin-2-yl)-4-methyl-2-(pyridin-4-yl) thiazole-5-carboxamide] | 8.91 | 8.94 |
| CCc1nc(-c2ccc(F)cc2)c(-c2ccc3nc(NC(=O)c4ccnc(F)c4)cn3n2)n1CC(F)F [Compound 286, N-(6-(1-(2,2-difluoroethyl)-2-ethyl-4-(4-fluorophenyl)-1H-imidazol-5-yl)imidazo[1,2-b]pyridazin-2-yl)-2-fluoroisonicotinamide] | 8.17 | 9.14 |
| Cc1nc(-c2cccnc2)sc1C(=O)Nc1cn2nc(-c3c(-c4ccc(F)cc4)ncn3C3CN(C)C3)ccc2n1 [Compound 154, N-(6-(4-(4-fluorophenyl)-1-(1-methylazetidin-3-yl)-1H-imidazol-5-yl)imidazo[1,2-b]pyridazin-2-yl)-4-methyl-2-(pyridin-3-yl)thiazole-5-carboxamide] | 8.06 | 9.04 |
| Cc1nc(-c2ccc(F)c(F)c2)c(-c2ccc3nc(NC(=O)c4ccnc(F)c4)cn3n2)n1CCF [Compound 290, N-(6-(4-(3,4-difluorophenyl)-1-(2-fluoroethyl)-2-methyl-1H-imidazol-5-yl)imidazo[1,2-b]pyridazin-2-yl)-2-fluoroisonicotinamide] | 8.72 | 9.39 |
| O=C(Nc1cn2nc(-c3c(-c4ccc(F)cc4)ncn3C3CCN(C[C@@H](O)C(F)(F)F)CC3)ccc2n1)c1cc(F)nc(F)c1 [Compound 90, (R)-2,6-difluoro-N-(6-(4-(4-fluorophenyl)-1-(1-(3,3,3-trifluoro-2-hydroxypropyl)piperidin-4-yl)-1H-imidazol-5-yl)imidazo[1,2-b]pyridazin-2-yl)isonicotinamide] | 8.25 | 9.19 |
| O=C(Nc1cn2nc(-c3c(-c4ccc(F)cc4)nc4ccccn34)ccc2n1)c1csc(-c2ccncc2)n1 [Compound 187, N-(6-(2-(4-fluorophenyl)imidazo[1,2-a]pyridin-3-yl)imidazo[1,2-b]pyridazin-2-yl)-2-(pyridin-4-yl)thiazole-4-carboxamide] | 7.52 | 7.98 |
| Cc1nc(-c2ccc(F)cc2)c(-c2ccc3nc(NC(=O)c4cc[nH]c4)cn3n2)n1C [Compound 348, N-(6-(4-(4-fluorophenyl)-1,2-dimethyl-1H-imidazol-5-yl)imidazo[1,2-b]pyridazin-2-yl)-1H-pyrrole-3-carboxamide] | 8.24 | 8.79 |
| O=C(Nc1cn2nc(-c3c(-c4ccc(F)cc4)nc4n3CCC4)ccc2n1)c1ccnc(N2CCOCC2)c1 [Compound 439, N-(6-(2-(4-Fluorophenyl)-6,7-dihydro-5H-pyrrolo[1,2-a]imidazol-3-yl)imidazo[1,2-b]pyridazin-2-yl)-2-morpholinoisonicotinamide] | 8.48 | 8.89 |
| O=C(Nc1cn2nc(-c3c(-c4ccc(F)cc4)ncn3Cc3cc(C4CC4)[nH]n3)ccc2n1)c1ccnc(F)c1 [Compound 270, N-(6-(1-((5-cyclopropyl-1H-pyrazol-3-yl)methyl)-4-(4-fluorophenyl)-1H-imidazol-5-yl)imidazo[1,2-b]pyridazin-2-yl)-2-fluoroiso-nicotinamide] | 7.14 | 8.02 |
| O=C(Nc1cn2nc(-c3c(-c4ccc(F)cc4)ncn3C3CCN(CCC(F)(F)F)CC3)ccc2n1)c1ccnc(F)c1 [Compound 10, 2-fluoro-N-(6-(4-(4-fluorophenyl)-1-(1-(3,3,3-trifluoropropyl)piperidin-4-yl)-1H-imidazol-5-yl)imidazo[1,2-b]pyridazin-2-yl)isonicotinamide] | 8.64 | 9.07 |
